According to ChEMBL document CHEMBL1201861, “Genomics of Drug Sensitity in Cancer screening data, Wellcome Trust Sanger Institute”:

Key:
Assay in all cases: cells
SNU-C2B = format: functional, cell-based, Homo sapiens; conditions: Homo sapiens, SNU-C2B
Description: SANGER: Inhibition of human SNU-C2B cell growth in a cell viability assay.

COLO-824 = format: functional, cell-based, Homo sapiens; conditions: Homo sapiens, COLO-824
Description: SANGER: Inhibition of human COLO-824 cell growth in a cell viability assay.

NTERA-2-cl-D1 = format: functional, cell-based, Homo sapiens; conditions: Homo sapiens, NTERA-2-cl-D1
Description: SANGER: Inhibition of human NTERA-S-cl-D1 cell growth in a cell viability assay.

RMG-I = format: functional, cell-based, Homo sapiens; conditions: Homo sapiens, RMG-I
Description: SANGER: Inhibition of human RMG-I cell growth in a cell viability assay.

LoVo = format: functional, cell-based; conditions: Homo sapiens
Description: SANGER: Inhibition of human LoVo cell growth in a cell viability assay.

PANC-03-27 = format: functional, cell-based, Homo sapiens; conditions: Homo sapiens, PANC-03-27
Description: SANGER: Inhibition of human PANC-03-27 cell growth in a cell viability assay.

NCI-H1155 = format: functional, cell-based; conditions: Homo sapiens
Description: SANGER: Inhibition of human NCI-H1155 cell growth in a cell viability assay.

TE-6 = format: functional, cell-based, Homo sapiens; conditions: Homo sapiens, TE-6
Description: SANGER: Inhibition of human TE-6 cell growth in a cell viability assay.

SW48 = format: functional, cell-based, Homo sapiens; conditions: Homo sapiens, SW48
Description: SANGER: Inhibition of human SW48 cell growth in a cell viability assay.

D-542MG = format: functional, cell-based, Homo sapiens; conditions: Homo sapiens, D-542MG
Description: SANGER: Inhibition of human D-542MG cell growth in a cell viability assay.

MOLT-4 = format: functional, cell-based; conditions: Homo sapiens
Description: SANGER: Inhibition of human MOLT-4 cell growth in a cell viability assay.

CAKI-1 = format: functional, cell-based, Homo sapiens; conditions: Homo sapiens, CAKI-1
Description: SANGER: Inhibition of human CAKI-1 cell growth in a cell viability assay.

ABC-1 = format: functional, cell-based, Homo sapiens; conditions: Homo sapiens, ABC-1
Description: SANGER: Inhibition of human ABC-1 cell growth in a cell viability assay.

NB14 = format: functional, cell-based; conditions: Homo sapiens
Description: SANGER: Inhibition of human NB14 cell growth in a cell viability assay.

HCC70 = format: functional, cell-based, Homo sapiens; conditions: Homo sapiens, HCC70
Description: SANGER: Inhibition of human HCC70 cell growth in a cell viability assay.

HOP-62 = format: functional, cell-based, Homo sapiens; conditions: Homo sapiens, HOP-62
Description: SANGER: Inhibition of human HOP-62 cell growth in a cell viability assay.

EFO-21 = format: functional, cell-based, Homo sapiens; conditions: Homo sapiens, EFO-21
Description: SANGER: Inhibition of human EFO-21 cell growth in a cell viability assay.

KYSE-270 = format: functional, cell-based, Homo sapiens; conditions: Homo sapiens, KYSE-270
Description: SANGER: Inhibition of human KYSE-270 cell growth in a cell viability assay.

J82 = format: functional, cell-based; conditions: Homo sapiens
Description: SANGER: Inhibition of human J82 cell growth in a cell viability assay.

MG-63 = format: functional, cell-based, Homo sapiens; conditions: Homo sapiens, MG-63
Description: SANGER: Inhibition of human MG-63 cell growth in a cell viability assay.

ES7 = format: functional, cell-based, Homo sapiens; conditions: Homo sapiens, ES7
Description: SANGER: Inhibition of human ES7 cell growth in a cell viability assay.

HGC-27 = format: functional, cell-based, Homo sapiens; conditions: Homo sapiens, HGC-27
Description: SANGER: Inhibition of human HGC-27 cell growth in a cell viability assay.

NCI-H2030 = format: functional, cell-based, Homo sapiens; conditions: Homo sapiens, NCI-H2030
Description: SANGER: Inhibition of human NCI-H2030 cell growth in a cell viability assay.

HCC1806 = format: functional, cell-based, Homo sapiens; conditions: Homo sapiens, HCC1806
Description: SANGER: Inhibition of human HCC1806 cell growth in a cell viability assay.

EW-1 = format: functional, cell-based, Homo sapiens; conditions: Homo sapiens, EW-1
Description: SANGER: Inhibition of human EW-1 cell growth in a cell viability assay.

SW982 = format: functional, cell-based; conditions: Homo sapiens
Description: SANGER: Inhibition of human SW982 cell growth in a cell viability assay.

NCI-H1355 = format: functional, cell-based, Homo sapiens; conditions: Homo sapiens, NCI-H1355
Description: SANGER: Inhibition of human NCI-H1355 cell growth in a cell viability assay.

TYK-nu = format: functional, cell-based, Homo sapiens; conditions: Homo sapiens, TYK-nu
Description: SANGER: Inhibition of human TYK-nu cell growth in a cell viability assay.

D-263MG = format: functional, cell-based, Homo sapiens; conditions: Homo sapiens, D-263MG
Description: SANGER: Inhibition of human D-263MG cell growth in a cell viability assay.

SW1088 = format: functional, cell-based, Homo sapiens; conditions: Homo sapiens, SW1088
Description: SANGER: Inhibition of human SW1088 cell growth in a cell viability assay.

COLO-792 = format: functional, cell-based, Homo sapiens; conditions: Homo sapiens, COLO-792
Description: SANGER: Inhibition of human COLO-792 cell growth in a cell viability assay.

C2BBe1 = format: functional, cell-based, Homo sapiens; conditions: Homo sapiens, C2BBe1
Description: SANGER: Inhibition of human C2BBe1 cell growth in a cell viability assay.

BT-474 = format: functional, cell-based, Homo sapiens; conditions: Homo sapiens, BT-474
Description: SANGER: Inhibition of human BT-474 cell growth in a cell viability assay.

COLO-668 = format: functional, cell-based, Homo sapiens; conditions: Homo sapiens, COLO-668
Description: SANGER: Inhibition of human COLO-668 cell growth in a cell viability assay.

MKN-7 = format: functional, cell-based, Homo sapiens; conditions: Homo sapiens, MKN-7
Description: SANGER: Inhibition of human MKN7 cell growth in a cell viability assay.

EW-13 = format: functional, cell-based; conditions: Homo sapiens
Description: SANGER: Inhibition of human EW-13 cell growth in a cell viability assay.

KU812 cell line = format: functional, cell-based; conditions: Homo sapiens
Description: SANGER: Inhibition of human KU812 cell growth in a cell viability assay.

COLO-320-HSR = format: functional, cell-based; conditions: Homo sapiens
Description: SANGER: Inhibition of human COLO-320-HSR cell growth in a cell viability assay.

A2058 = format: functional, cell-based; conditions: Homo sapiens
Description: SANGER: Inhibition of human A2058 cell growth in a cell viability assay.

HD-MY-Z = format: functional, cell-based, Homo sapiens; conditions: Homo sapiens, HD-MY-Z
Description: SANGER: Inhibition of human HD-MY-Z cell growth in a cell viability assay.

HuO-3N1 = format: functional, cell-based, Homo sapiens; conditions: Homo sapiens, HuO-3N1
Description: SANGER: Inhibition of human HuO-3N1 cell growth in a cell viability assay.

769-P = format: functional, cell-based, Homo sapiens; conditions: Homo sapiens, 769-P
Description: SANGER: Inhibition of human 769-P cell growth in a cell viability assay.

ES8 = format: functional, cell-based, Homo sapiens; conditions: Homo sapiens, ES8
Description: SANGER: Inhibition of human ES8 cell growth in a cell viability assay.

RO82-W-1 = format: functional, cell-based, Homo sapiens; conditions: Homo sapiens, RO82-W-1
Description: SANGER: Inhibition of human RO82-W-1 cell growth in a cell viability assay.

Daoy = format: functional, cell-based, Homo sapiens; conditions: Homo sapiens, Daoy
Description: SANGER: Inhibition of human Daoy cell growth in a cell viability assay.

YAPC = format: functional, cell-based, Homo sapiens; conditions: Homo sapiens, YAPC
Description: SANGER: Inhibition of human YAPC cell growth in a cell viability assay.

NCI-H28 = format: functional, cell-based, Homo sapiens; conditions: Homo sapiens, NCI-H28
Description: SANGER: Inhibition of human NCI-H28 cell growth in a cell viability assay.

MDA-MB-231 = format: functional, cell-based, Homo sapiens; conditions: Homo sapiens, MDA-MB-231
Description: SANGER: Inhibition of human MDA-MB-231 cell growth in a cell viability assay.

COLO-680N = format: functional, cell-based, Homo sapiens; conditions: Homo sapiens, COLO-680N
Description: SANGER: Inhibition of human COLO-680N cell growth in a cell viability assay.

HCC1937 = format: functional, cell-based, Homo sapiens; conditions: Homo sapiens, HCC1937
Description: SANGER: Inhibition of human HCC1937 cell growth in a cell viability assay.

MDA-MB-157 = format: functional, cell-based, Homo sapiens; conditions: Homo sapiens, MDA-MB-157
Description: SANGER: Inhibition of human MDA-MB-157 cell growth in a cell viability assay.

## Nc1ccn([C@@H]2O[C@H](CO)[C@@H](O)[C@@H]2O)c(=O)n1 [CYTARABINE]
SNU-C2B
  IC50: > 2000 nM
COLO-824
  IC50: > 2000 nM
NTERA-2-cl-D1
  IC50: 159 nM
RMG-I
  IC50: > 2000 nM
LoVo
  IC50: 671 nM
PANC-03-27
  IC50: 897 nM
NCI-H1155
  IC50: 397 nM
TE-6
  IC50: > 2000 nM
SW48
  IC50: 366 nM
D-542MG
  IC50: > 2000 nM
MOLT-4
  IC50: 89.7 nM
CAKI-1
  IC50: 120 nM
ABC-1
  IC50: 1520 nM
NB14
  IC50: 310 nM
HCC70
  IC50: > 2000 nM
HOP-62
  IC50: > 2000 nM
EFO-21
  IC50: 1550 nM
KYSE-270
  IC50: 849 nM
J82
  IC50: 1620 nM
MG-63
  IC50: > 2000 nM
ES7
  IC50: 257 nM
HGC-27
  IC50: 455 nM
NCI-H2030
  IC50: 1050 nM
HCC1806
  IC50: 191 nM
EW-1
  IC50: 139 nM
SW982
  IC50: 91.2 nM
NCI-H1355
  IC50: 556 nM
TYK-nu
  IC50: 661 nM
D-263MG
  IC50: 1170 nM
SW1088
  IC50: > 2000 nM
COLO-792
  IC50: 1050 nM
C2BBe1
  IC50: 166 nM
BT-474
  IC50: > 2000 nM
COLO-668
  IC50: 809 nM
MKN-7
  IC50: > 2000 nM
EW-13
  IC50: 1980 nM
KU812 cell line
  IC50: > 2000 nM
COLO-320-HSR
  IC50: > 2000 nM
A2058
  IC50: 687 nM
HD-MY-Z
  IC50: 745 nM
HuO-3N1
  IC50: 1330 nM
769-P
  IC50: 228 nM
ES8
  IC50: 124 nM
RO82-W-1
  IC50: > 2000 nM
Daoy
  IC50: 532 nM
YAPC
  IC50: > 2000 nM
NCI-H28
  IC50: 1820 nM
MDA-MB-231
  IC50: > 2000 nM
COLO-680N
  IC50: > 2000 nM
HCC1937
  IC50: > 2000 nM
MDA-MB-157
  IC50: 1390 nM

## CC(=O)O[C@@]12CO[C@@H]1C[C@H](O)[C@@]1(C)C(=O)[C@H](O)C3=C(C)[C@@H](OC(=O)[C@H](O)[C@@H](NC(=O)OC(C)(C)C)c4ccccc4)C[C@@](O)([C@@H](OC(=O)c4ccccc4)[C@H]21)C3(C)C [DOCETAXEL]
SNU-C2B
  IC50: > 10 nM
COLO-824
  IC50: 5.9 nM
NTERA-2-cl-D1
  IC50: 0.773 nM
RMG-I
  IC50: > 10 nM
LoVo
  IC50: > 10 nM
PANC-03-27
  IC50: 1.54 nM
NCI-H1155
  IC50: > 10 nM
TE-6
  IC50: > 10 nM
SW48
  IC50: 1.01 nM
D-542MG
  IC50: > 10 nM
MOLT-4
  IC50: 4.71 nM
CAKI-1
  IC50: > 10 nM
ABC-1
  IC50: > 10 nM
NB14
  IC50: 0.26 nM
HCC70
  IC50: 2.77 nM
HOP-62
  IC50: > 10 nM
EFO-21
  IC50: > 10 nM
KYSE-270
  IC50: 2.78 nM
J82
  IC50: > 10 nM
MG-63
  IC50: 1.51 nM
ES7
  IC50: 0.389 nM
HGC-27
  IC50: 0.471 nM
NCI-H2030
  IC50: > 10 nM
HCC1806
  IC50: 1.18 nM
EW-1
  IC50: 2.98 nM
SW982
  IC50: 1.27 nM
NCI-H1355
  IC50: 6.79 nM
TYK-nu
  IC50: 2.32 nM
D-263MG
  IC50: 0.947 nM
SW1088
  IC50: 2.95 nM
COLO-792
  IC50: > 10 nM
C2BBe1
  IC50: 1.82 nM
BT-474
  IC50: > 10 nM
COLO-668
  IC50: > 10 nM
MKN-7
  IC50: > 10 nM
EW-13
  IC50: > 10 nM
KU812 cell line
  IC50: > 10 nM
COLO-320-HSR
  IC50: > 10 nM
A2058
  IC50: 0.544 nM
HD-MY-Z
  IC50: 1.41 nM
HuO-3N1
  IC50: 0.302 nM
769-P
  IC50: > 10 nM
ES8
  IC50: 0.26 nM
RO82-W-1
  IC50: 5.31 nM
Daoy
  IC50: 0.7 nM
YAPC
  IC50: > 10 nM
NCI-H28
  IC50: 3.34 nM
MDA-MB-231
  IC50: 7.3 nM
COLO-680N
  IC50: 5.08 nM
HCC1937
  IC50: > 10 nM
MDA-MB-157
  IC50: > 10 nM

## C=CCNC1=C2C[C@@H](C)C[C@H](OC)[C@H](O)[C@@H](C)/C=C(\C)[C@H](OC(N)=O)[C@@H](OC)/C=C\C=C(/C)C(=O)NC(=CC1=O)C2=O [TANESPIMYCIN]
SNU-C2B
  IC50: 580 nM
COLO-824
  IC50: 173 nM
NTERA-2-cl-D1
  IC50: 328 nM
RMG-I
  IC50: > 1000 nM
LoVo
  IC50: > 1000 nM
PANC-03-27
  IC50: 103 nM
NCI-H1155
  IC50: 262 nM
TE-6
  IC50: 257 nM
SW48
  IC50: 50.4 nM
D-542MG
  IC50: > 1000 nM
MOLT-4
  IC50: > 1000 nM
CAKI-1
  IC50: 321 nM
ABC-1
  IC50: > 1000 nM
NB14
  IC50: > 1000 nM
HCC70
  IC50: 921 nM
HOP-62
  IC50: 499 nM
EFO-21
  IC50: > 1000 nM
KYSE-270
  IC50: 231 nM
J82
  IC50: 273 nM
MG-63
  IC50: > 1000 nM
ES7
  IC50: > 1000 nM
HGC-27
  IC50: 5.1 nM
NCI-H2030
  IC50: 54.1 nM
HCC1806
  IC50: 71.3 nM
EW-1
  IC50: > 1000 nM
SW982
  IC50: 30 nM
NCI-H1355
  IC50: 281 nM
TYK-nu
  IC50: 39.9 nM
D-263MG
  IC50: 27.9 nM
SW1088
  IC50: 164 nM
COLO-792
  IC50: 313 nM
C2BBe1
  IC50: 222 nM
BT-474
  IC50: 45 nM
COLO-668
  IC50: > 1000 nM
MKN-7
  IC50: > 1000 nM
EW-13
  IC50: > 1000 nM
KU812 cell line
  IC50: 340 nM
COLO-320-HSR
  IC50: > 1000 nM
A2058
  IC50: 72.3 nM
HD-MY-Z
  IC50: 109 nM
HuO-3N1
  IC50: 52.4 nM
769-P
  IC50: 213 nM
ES8
  IC50: 308 nM
RO82-W-1
  IC50: 397 nM
Daoy
  IC50: 317 nM
YAPC
  IC50: 451 nM
NCI-H28
  IC50: 118 nM
MDA-MB-231
  IC50: > 1000 nM
COLO-680N
  IC50: 194 nM
HCC1937
  IC50: 163 nM
MDA-MB-157
  IC50: 181 nM
